The source of these data is patent US20250242017A1, “HISTAMINE AND HRH1 SIGNALING ACTIVITY AS BIOMARKERS AND ASSOCIATED METHODS” (Board of Regents, The University of Texas System, priority 2022, published 2025).

For one assay, the system named is CD8+ T cells. Description: In vitro co-culture of macrophages with T cells. It counts as cell-based, mouse. How it is done:
In vitro co-culture with T cells. Spleens from wild-type C57BL/6 or BALB/c mice were harvested and filtered through a […] cell strainer to generate a single-cell suspension. After red blood cell lysis, splenocytes were counted and plated in complete Roswell Park Memorial Institute 1640 medium supplemented with […] b-mercaptoethanol and 10 mM HEPES onto 12-well plates coated with […] anti-CD3 (clone 145-2C11, BioLegend) and […] anti-CD28 (clone 37N, BioLegend) antibodies. Spleen T cells were activated for 48 hours before co-culture with macrophages. To educate the macrophages, we co-cultured naïve BMDMs with tumor cells at a ratio of 1:1 or with tumor cell-derived conditioned medium for 48 hours. Macrophages were seeded with activated T cells at a ratio of 5:1. After co-culture for another 24 or 48 hours, T cells were collected for flow cytometry analysis.
(§1) Flow cytometry staining and analysis.

For a further assay, the system named is macrophages. The assay can be described thus: Intracellular calcium measurement (Fluo-Forte). It counts as cell-based, mouse. As to conditions: after histamine or TCM treatment. On the procedure:
Intracellular calcium measurement. Intracellular Ca2+ was determined using the Fluo-Forte calcium assay kit (Enzo Life Sciences) according to the manufacturer's instructions. Fluorescence was measured using a BD FACSCanto II Flow Cytometer.

Assay [1] has as its system CT26 tumors. The assay can be described thus: CT26 tumor model with or without OVA-induced allergic airway disease. It counts as in vivo, mouse.
Description: (§2) Tumor inductions and treatment experiments.
(§3) Isolation of tumor-infiltrating cells.
as §1

Assay [2] concerns bone marrow-derived macrophages (BMDMs). To be noted: TCM-treated WT BMDMs; FEXO 10 mM, 48 h.
Description: Generation of naïve bone marrow-derived macrophages (BMDMs). Bone marrow cells were collected from femurs obtained from 8- to 10-week-old C57BL/6 or BALB/c mice. After red blood cell lysis, bone marrow cells were seeded at a density of 5×10^6 cells/150×15 mm Petri dish and cultured at 37° C. in complete Dulbecco modified Eagle medium (DMEM) containing 20% L929 cell-conditioned medium, providing macrophage colony-stimulating factor. Macrophages were ready for use on day 7 following a fresh medium change on day 4.
Macrophage polarization and stimulation. To polarize macrophages toward an M1-like phenotype, we stimulated PBMC-derived macrophages or BMDMs with IFN-g (20 ng/ml, PeproTech) for 48 hours. To induce an M2-like phenotype, we treated THP-1-derived macrophages or BMDMs with IL-4 (20 ng/mL, PeproTech) for 48 hours. […] To stimulate macrophages with tumor cell-derived conditioned medium (TCM), we cultured BMDMs with complete medium containing 50% TCM (volume).
Flow cytometry staining and analysis. Live single cells were sub-gated by staining with Fixable Viability Dye eFluor 450 (eBioscience) for 15 minutes at 4° C. For blocking of Fc receptors, cells were then pre-incubated with purified anti-CD16/32 antibody (clone 93, BioLegend) for 10 minutes on ice before immunostaining. […]
Assay [3] has as its system OVA-transduced EO771 tumor cells. The assay can be described thus: In vitro T cell killing assay (OT-I). It counts as cell-based, mouse. As to conditions: in presence of FEXO-treated macrophages. On the procedure: In vitro T cell killing assays. Ovalbumin (OVA)-expressing EO771 cells alone or co-cultured with macrophages at a ratio of 1:2 were plated into 12-well plates. The following day, OT-I T cells pre-activated by OVA257-264 were added to the plates at the indicated ratio. After co-culture for another 48 hours, the tumor cells were harvested and counted to determine T cell killing ability.

The test system of a further assay is B16-GM tumors. The assay can be described thus: B16-GM melanoma model.
A further assay has as its system EMT6 tumors. Description: EMT6 tumor model with or without OVA-induced allergic airway disease. It counts as in vivo, mouse.
Description: as §2, §3, §1

Assay [4] relates to CT26 tumors. Description: CT26 colorectal carcinoma model. As to conditions: WT mice.
Description: Tumor inductions and treatment experiments. […] For the CT26 model, 2×10^5 CT26 cells were subcutaneously injected into the back of BALB/c mice. […] Treatments were given as single agents or in combination, with the following regimen for each drug. […] Treatments were initiated on day 5 after tumor inoculation for the entire duration of the experiment. […] Anti-VISTA antibody (clone 13F3, Bio X Cell, 300 mg/mouse) was injected subcutaneously every day for 10 days starting on day 7, followed by continuous injection every 2 days for the rest of the duration of the experiment (Le Mercier et al., 2014). […] Tumor size was measured by calipers every second or third day when tumors were palpable, and the volume was calculated using the formula V=as (width×width×length)/2.
Another assay deals with 4T1 tumors. Description: 4T1 mammary tumor model. It counts as in vivo, mouse.
Description: as §2, §3, §1

For a further assay, the system named is LLC tumors. The assay can be described thus: LLC lung carcinoma model. It counts as in vivo, mouse. To be noted: FEXO-treated vs vehicle-treated.
Description: as §2, §3, §1

For the next assay, the system named is EO771 tumors.
Description: as §2, §3, §1

[5] abbreviates: FEXO-treated WT mice vs controls.
The mark [6] stands for this setting: FEXO-treated vs vehicle-treated WT mice.
[7] abbreviates: PD-L1-/- mice treated with FEXO.

Description for B16-GM tumors: Tumor inductions and treatment experiments. […] For LLC and B16-GM models, 2×10^5 tumor cells were subcutaneously injected into the back of C57BL/6 mice. […] Treatments were given as single agents or in combination, with the following regimen for each drug. […] Treatments were initiated on day 5 after tumor inoculation for the entire duration of the experiment. […] Anti-VISTA antibody (clone 13F3, Bio X Cell, 300 mg/mouse) was injected subcutaneously every day for 10 days starting on day 7, followed by continuous injection every 2 days for the rest of the duration of the experiment (Le Mercier et al., 2014). For in vivo CD8+ T cell depletion, mice were treated with 200 mg of anti-CD8 antibody every 3-4 days starting at 3 days before B16-GM tumor inoculation. […] Tumor size was measured by calipers every second or third day when tumors were palpable, and the volume was calculated using the formula V=as (width×width×length)/2.
Isolation of tumor-infiltrating cells. Mouse tumor samples were chopped with scissors and then subjected to enzymatic digestion with 2 mg/ml collagenase A (Roche) in DMEM for 1 hour at 37° C. Next, tissues were filtered through 70-mm filters (BD Biosciences) to achieve single-cell suspensions. After treatment with red blood cell lysis buffer for 5 minutes at room temperature, all samples were washed and re-suspended in flow cytometry buffer (phosphate-buffered saline/0.5% albumin/2 mM EDTA) or DMEM depending on further use.
Flow cytometry staining and analysis. Live single cells were sub-gated by staining with Fixable Viability Dye eFluor 450 (eBioscience) for 15 minutes at 4° C. For blocking of Fc receptors, cells were then pre-incubated with purified anti-CD16/32 antibody (clone 93, BioLegend) for 10 minutes on ice before immunostaining. After one wash with flow cytometry buffer, cells were incubated with appropriate dilutions of various combinations of the following antibodies. Primary antibodies to cell surface markers directed against CD45 (30-F11), CD3 (145-2C11), CD8a (53¬6.7), CD11b (M1/70), Gr-1 (RB6-8C5), F4/80 (BM8), CD206 (C068C2), I-A/I-E (M5/114.15.2), VISTA (MHSA), Tim-3 (B8.2C12), CD11c (N418), CD24 (M1/69), GITRL (YGL 386), ICOSL (HK5.3), 4-1BBL (TKS-1), CD276 (RTAA15), OX40L (RM134L), Galectin-9 (RG9-35), PD-L1 (10F.9G2), and PD-L2 (TY25) were from BioLegend; against HRH1 (480054), from R&D Systems; against HRH1 (AHR-001), from Alomone Labs; and against Siglec-F (E50-2440), from BD Biosciences. For intracellular staining, cells were fixed, permeabilized using Foxp3/Transcription Factor Staining Buffer Set (eBioscience), and then stained with fluorochrome-conjugated antibodies to Ki-67 (16A8) and PRF1 (S16009A) from BioLegend.

Turning to `CC(C)(C(=O)O)c1ccc(C(O)CCCN2CCC(C(O)(c3ccccc3)c3ccccc3)CC2)cc1` (centres unmarked) [FEXO, fexofenadine], the T cell activation/killing result in the assay with CD8+ T cells (FEXO treatment of HRH1-/- macrophages vs vehicle-treated HRH1-/- macrophages) is recorded as “did not increase”. In the assay on CD8+ T cells (FEXO-treated macrophages cultured with WT splenic T cells), the “TAM-mediated T cell suppression (T cell proliferation, IFN-g, PRF1)” value was “abrogated TAM-mediated T cell suppression”. In the assay with macrophages, the “intracellular free Ca2+ levels” value is “higher in WT macrophages than in HRH1−/− macrophages and FEXO-treated WT macrophages”. In the assay with CT26 tumors [1] (OVA-allergic BALB/c mice), the “allergy-increased CT26 tumor growth” value was “largely blocked by FEXO treatment”. Also, the “sensitivity of tumors to ICB therapy with FEXO treatment” value with CT26 tumors [1] (allergic mice, ICB+FEXO) is reported as “largely restored sensitivity”; in the assay with EMT6 tumors (allergic mice, ICB+FEXO), “largely restored sensitivity”. Further, in assay [2], the “M1-M2 polarization status (MHCII, CD206)” value is “polarized macrophages toward an M1-like phenotype”. For the same compound, the “OT-I cell-mediated killing of OVA-transduced EO771 tumor cells” value in [3] is “increased ovalbumin (OVA)-specific OT-I cell-mediated killing”. The “VISTA expression on TAMs” value with B16-GM tumors (setting [5]) and with EO771 tumors (setting [5]) was “Reduced VISTA expression” each time. For the same compound, the “inhibition of B16-GM tumor growth under CD8+ T cell depletion” value with B16-GM tumors (FEXO-treated WT mice, anti-CD8 antibodies) was “blocked by depleting CD8+ T cells”. Moreover, the “numbers of IFN-g+ and PRF1+ CD8+ T cells” value in the assay with B16-GM tumors (setting [6]) and in the assay with EO771 tumors (setting [6]) was “increased numbers” each time. The tumor growth entry in the assay with B16-GM tumors (setting [6]) and in the assay on EO771 tumors (setting [6]) was “reduced tumor growth” throughout. The B16-GM lung metastases result with B16-GM tumors (after surgical removal of primary melanomas at 100 mm3, FEXO vs vehicle) is reported as “inhibited”. For the same compound, the “allergy-accelerated EMT6 tumor growth” value in the assay with EMT6 tumors (OVA-allergic BALB/c mice) is given as “largely blocked by FEXO treatment”. For the same compound, the CT26 tumor growth result in the assay on CT26 tumors [4] is given as “delayed tumor growth”. Also, in the assay on 4T1 tumors (FEXO-treated WT mice bearing 4T1 tumor vs controls), the “VISTA expression on alveolar macrophages from lung metastases” value is given as “downregulated”. Besides, the “VISTA on TAMs” value with 4T1 tumors (FEXO-treated vs vehicle-treated) and with LLC tumors was “Decreased VISTA on TAMs” in each case. Besides, in the assay on EO771 tumors (setting [7]), the survival entry is reported as “dramatically prolonged survival”. Also, the tumor inhibition entry with EO771 tumors (setting [7]) is “most effective tumor inhibition”.
